Laboratory results as given in paper PMC6917776, “Discovery of a chemical probe for PRDM9” (Nature Communications, 2019).
Like-named read-outs stand apart in the source and are kept apart here.

Tests used:
BCDIN3D = target: T1, BCDIN3D (Homo sapiens, UniProt Q7Z5W3); experiment: Methyltransferase selectivity assay (SPA); type: biochemical
T1 construct: purchased Structural Genomics Consortium (SGC Toronto) in-house methyltransferase panel
T1 sequence (Q7Z5W3 1-292): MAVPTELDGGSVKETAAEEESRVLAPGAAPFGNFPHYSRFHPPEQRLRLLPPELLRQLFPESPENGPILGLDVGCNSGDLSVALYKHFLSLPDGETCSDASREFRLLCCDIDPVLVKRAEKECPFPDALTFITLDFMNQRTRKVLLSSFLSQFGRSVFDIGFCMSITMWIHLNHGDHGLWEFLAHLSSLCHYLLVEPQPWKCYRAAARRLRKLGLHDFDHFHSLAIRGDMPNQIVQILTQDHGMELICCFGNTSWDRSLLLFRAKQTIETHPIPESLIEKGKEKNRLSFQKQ
Method: (§1) Selectivity against methyltransferases were determined as described previously. Details of the assays are described in the supplementary methods.
(§2) Methyltransferase selectivity assay1
The effect of chemical probes and negative controls on the methyltransferase activities of protein, DNA and RNA methyltransferases was tested by radiometric assays using 3H-SAM. For proteins such as MLL1 trimeric, MLL3 pentameric, EZH1 (PRC2) pentameric, and EZH2 (PRC2) trimeric complexes, as well as G9a, GLP, SUV39H1, SUV39H2, SUV420H1, SUV420H2, SETD2, SETD8, SETDB1, SETD7, PRMT1, PRMT3, PRMT4, PRMT5/ MEP50 complex, PRMT6, PRMT7, PRMT8, PRMT9, PRDM9, SMYD2, SMYD3, DNMT1, and BCDIN3D the incorporation of a tritium-labeled methyl group into biotinylated substrate was monitored using scintillation proximity assay (SPA). Briefly, a 10 µL reaction containing 3H-SAM and substrate at concentrations close to the apparent Km values for each enzyme (balanced conditions) was prepared. The reactions were quenched with 10 µL of 7.5 M guanidine hydrochloride; 180 µL of 20 mM Tris buffer (pH 8.0) were added, and the mixture was transferred to a 96-well FlashPlate and incubated for 1 h. The counts per minute (CPM) was measured on a TopCount plate reader. The CPM in the absence of compound or enzyme was defined as 100% activity and background (0%), respectively, for each dataset. For DNMT1, the double-stranded DNA substrate was prepared by annealing two complementary strands (biotinylated forward strand: B-[…] and reverse strand:
) that were synthesized by Eurofins MWG Operon
(§3) For proteins which were tested with nucleosome as substrate such as DOT1L, NSD1, NSD2, NSD3, and ASH1L, or unbiotinylated Poly(2′-deoxyinosinic-2′-deoxycytidylic acid) (Cat# 81349-500UG, Sigma Aldrich) such as DNMT3A/3L, and DNMT3B/3L, a filter-based assay was used. In this assay, a trichloroacetic acid (TCA) protein precipitation protocol was employed. A 10 µL reaction mixture was incubated at 23°C for 1 h, followed by addition of 50 µL of 10% TCA. The mixture was transferred to filter plates (Millipore, Billerica, MA, USA) that were centrifuged at 2000 rpm (Allegra X-15R; Beckman Coulter, Brea, CA, USA) for 2 min. Samples were washed twice with 10% TCA and once with ethanol (180 µL), and centrifuged. After drying, 100 µL MicroScint-O (Perkin Elmer) was added to each well and the plates were centrifuged to remove the liquid. A 70 µL volume of MicroScint-O was added and the CPM was measured with a TopCount plate reader.

NSD3 = target: T2, NSD3 (Homo sapiens, UniProt Q9BZ95); experiment: Methyltransferase selectivity assay (filter-based, nucleosome substrate); type: biochemical; settings: for activity at 1 µM: 1µM compound; for activity at 10 µM / Activity %: 10µM compound; for Activity %: Exp1, Exp2, 10 µM
T2 construct: purchased Structural Genomics Consortium (SGC Toronto) in-house methyltransferase panel
T2 sequence (Q9BZ95 1-1437): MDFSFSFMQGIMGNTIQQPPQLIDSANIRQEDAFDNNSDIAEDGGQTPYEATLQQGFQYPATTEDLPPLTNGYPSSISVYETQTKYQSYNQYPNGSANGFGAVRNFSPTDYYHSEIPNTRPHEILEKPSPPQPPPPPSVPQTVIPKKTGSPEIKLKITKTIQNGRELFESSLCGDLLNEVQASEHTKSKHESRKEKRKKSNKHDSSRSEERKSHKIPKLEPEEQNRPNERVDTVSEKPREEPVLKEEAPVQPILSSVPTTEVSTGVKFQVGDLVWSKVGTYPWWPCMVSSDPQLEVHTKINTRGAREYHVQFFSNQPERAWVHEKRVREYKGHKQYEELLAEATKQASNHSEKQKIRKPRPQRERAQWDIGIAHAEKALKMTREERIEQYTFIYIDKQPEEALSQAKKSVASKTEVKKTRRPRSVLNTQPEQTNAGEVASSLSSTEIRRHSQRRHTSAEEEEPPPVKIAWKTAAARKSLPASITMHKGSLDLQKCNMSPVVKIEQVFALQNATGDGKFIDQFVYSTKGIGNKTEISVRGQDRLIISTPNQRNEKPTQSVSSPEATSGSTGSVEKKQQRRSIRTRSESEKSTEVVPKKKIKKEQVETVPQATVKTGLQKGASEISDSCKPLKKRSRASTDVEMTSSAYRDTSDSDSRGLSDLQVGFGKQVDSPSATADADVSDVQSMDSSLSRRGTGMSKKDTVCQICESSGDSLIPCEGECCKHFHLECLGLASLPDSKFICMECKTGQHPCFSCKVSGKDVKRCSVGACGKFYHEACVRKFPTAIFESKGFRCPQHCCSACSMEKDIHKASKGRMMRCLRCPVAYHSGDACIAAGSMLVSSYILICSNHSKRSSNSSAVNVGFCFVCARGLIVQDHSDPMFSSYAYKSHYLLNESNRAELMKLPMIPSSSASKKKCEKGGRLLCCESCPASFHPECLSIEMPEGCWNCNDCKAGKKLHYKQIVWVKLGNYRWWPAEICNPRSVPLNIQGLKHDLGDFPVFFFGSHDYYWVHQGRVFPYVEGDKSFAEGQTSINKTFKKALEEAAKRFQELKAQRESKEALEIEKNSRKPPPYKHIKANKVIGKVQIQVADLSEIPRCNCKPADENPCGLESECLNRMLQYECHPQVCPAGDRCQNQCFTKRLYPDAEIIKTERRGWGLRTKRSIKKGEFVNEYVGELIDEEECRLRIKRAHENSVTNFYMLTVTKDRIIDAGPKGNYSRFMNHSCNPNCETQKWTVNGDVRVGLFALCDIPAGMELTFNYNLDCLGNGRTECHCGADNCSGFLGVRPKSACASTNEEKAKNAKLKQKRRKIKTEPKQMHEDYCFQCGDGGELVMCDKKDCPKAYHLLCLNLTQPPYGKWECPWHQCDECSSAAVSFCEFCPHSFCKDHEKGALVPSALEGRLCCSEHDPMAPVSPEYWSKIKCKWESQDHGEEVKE
Method: as §1, §2
The effect of chemical probes and negative controls on the methyltransferase activities of protein, DNA and RNA methyltransferases was tested by radiometric assays using 3H-SAM. […]
The CPM in the absence of compound or enzyme was defined as 100% activity and background (0%), respectively, for each dataset. […]
as §3

[1] = 10µM compound, Exp1, Exp2, 10 µM
[2] = Exp1, Exp2, read-out: Activity %

| Compound | activity at 1 µM (BCDIN3D; 1µM compound, Exp1, Exp2) | Activity % (BCDIN3D; 1µM compound, Exp1, Exp2, 1 µM) | activity at 10 µM (BCDIN3D; 10µM compound, Exp1, Exp2) | Activity % (BCDIN3D; [1]) | activity at 1 µM (NSD3; Exp1, Exp2) | activity at 10 µM (NSD3; Exp1, Exp2) | Activity % (NSD3) | activity at 1 µM (BCDIN3D; 1µM compound, Exp1, Exp2, read-out: Activity %) | activity at 10 µM (BCDIN3D; 10µM compound, Exp1, Exp2, read-out: Activity %) | activity at 1 µM (NSD3; [2]) | activity at 10 µM (NSD3; [2]) |
| --- | --- | --- | --- | --- | --- | --- | --- | --- | --- | --- | --- |
| COc1cc(OC)cc(-c2noc(N3CCN(C)C4(CCN(c5ccccc5)CC4)C3)n2)c1 [MRK-740 -NC] | 103% | 101% | 100% | 94% | 97% | 95% | 93% |  |  |  |  |
| COc1cc(OC)cc(-c2noc(N3CCN(C)C4(CCN(c5ccnc(C)c5)CC4)C3)n2)c1 [MRK-740] |  | 100% |  | 95% |  |  | 99% | 101% | 104% | 89% | 95% |
